Laboratory results: US8883827B2, “Azole derivatives as WTN pathway inhibitors” (Oslo University Hospital HF, priority 2009, dated 2014)

Legend:
Format in all cases: cell-based
[1] = system: canonical Wnt signaling; assay: IC50 in STF/REN HEK293 cells, 50% Wnt3a-CM; settings: Homo sapiens; STF/REN HEK293, 50% Wnt3a-CM, 24 h
Procedure, shortened: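 HEK293 cells carrying STF/REN reporters seeded at 80,000/well on poly-L-lysine; after 24 h, exposed 24 h to compound in 50% Wnt3a-conditioned medium. Firefly and Renilla luciferase measured by Dual-Glo; IC50 fitted to a Langmuir binding isotherm.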

[2] = system: SW480 cells; assay: Growth inhibition (GI50) MTS assay; settings: Homo sapiens, 72 h
Procedure: Growth inhibition curves were prepared using SW480 cells, prepared essentially according to Example 23. SW480 cells (3000 cells per well) were seeded on 96 well plates (eight replicates per treatment). 24 hours later and daily thereafter, cell culture media (including 10% FBS) was mixed with various compound concentrations or with 0.1% DMSO vehicle and then added to the wells. Sixteen wells of seeded control cells, defining incubation time zero (to =24 hour after cell seeding), were incubated with […] substrate in 100 μl of phenol-free D-MEM (Invitrogen) for 2 hours, as described in the CellTiter 96® AQueous Non-Radioactive Cell Proliferation Assay protocol (MTS, Promega). The A490 was recorded. The treatment samples were likewise measured after 72 hours. The following formula was used to determine the single well relative A490 sample values: ((Sample A490−Average A490t0)*100)/(Average A490t720.1% DMSO control−Average A490t0)
XLfit (idbs) was used to determine the IC50 and GI50 values in inhibition experiments. The data were fit to the following formulae:
GI50: Eadie-Hofstee Model: fit=(A+((B*x)/((C*(D+1))+x))) inv=(((y−A)*(C*(D+1)))/((A+B)−y)) res=(y−fit)

[3] = system: APC mutant cell lines; assay: MTS cell proliferation assay, Table 6, mean; settings: 10 μM, 72 h
From the text: (§1) Control cell lines used were HeLa cells (cell growth not controlled by canonical Wnt signalling) and colorectal cancer cell lines LS174T and HCT116 (with mutant β-catenin N-terminal phosphorylation sites). Target cell lines used were colorectal cancer cell lines WiDr, LoVo, HCT-8, HCT-15, COL0205, DLD-1, HT-29, SW620, SW1463, SW480 which all carry a mutant APC gene. Target cells, along with L Wnt3a-expressing cells and HEK293 cells, were purchased from ATCC (American Type Culture Collection) and maintained according to the supplier's recommendations. Wnt3a containing conditioned media (Wnt3a-CM) from L Wnt3a expressing cells was harvested as described by ATCC.
(§2) For the experiment giving the results shown in Table 6, cells were exposed to cell culture medium (including 10% FBS) containing 10 μM of the compound to be tested 24 hours after seeding (3000 cells on 96-well plates). Medium was changed daily. After 72 hours, an MTS assay (CellTiter 96® AQueous Non-Radioactive Cell Proliferation Assay—Promega) was carried out according to the standard procedure. 0.1% DMSO was used as a control.
(§3) The quantity of reduced MTS product (as measured by the absorbance at 490 nm) is directly proportional to the number of living cells in the culture and thus allows a direct comparison of cell proliferation in each case. DMSO was used as a control. The following formula was used to determine single well relative A490 sample values: ((Sample A490−Average A490t0)*100)/(Average A490t720.1% DMSO control−Average A490t0)
(§4) Data shown are A490-percentage values relative to the DMSO control, calculated as described above, and represent averages from 2 to 4 independent experiments (except SW1463 cells treated with IWR-1 which reports only a single experiment). Compounds IWR-1 and XAV939 are known Wnt pathway inhibitors.

[4] = system: control cell lines; assay: MTS cell proliferation assay, Table 6, mean; settings: HeLa, HCT116, LS174T; 10 μM, 72 h
From the text: as §1, §2, §3, §4

[5] = system: SW480; assay: MTS cell proliferation assay, Table 6; settings: 10 μM, 72 h, relative to DMSO control
From the text: as §1, §2, §3, §4

[6] = system: SW620; assay: MTS cell proliferation assay, Table 6; settings: 10 μM, 72 h, relative to DMSO control
From the text: as §1, §2, §3, §4

[7] = system: HT-29; assay: MTS cell proliferation assay, Table 6; settings: 10 μM, 72 h, relative to DMSO control
From the text: as §1, §2, §3, §4

[8] = system: HCT-15; assay: MTS cell proliferation assay, Table 6; settings: 10 μM, 72 h, relative to DMSO control
From the text: as §1, §2, §3, §4

[9] = system: SW1463; assay: MTS cell proliferation assay, Table 6; settings: 10 μM, 72 h, relative to DMSO control
From the text: as §1, §2, §3, §4

[10] = system: HCT116; assay: MTS cell proliferation assay, Table 6; settings: HCT116 (control); 10 μM, 72 h; relative to DMSO control
From the text: as §1, §2, §3, §4

[11] = system: COLO205; assay: MTS cell proliferation assay, Table 6; settings: 10 μM, 72 h, relative to DMSO control
From the text: as §1, §2, §3, §4

[12] = system: HCT-8; assay: MTS cell proliferation assay, Table 6; settings: 10 μM, 72 h, relative to DMSO control
From the text: as §1, §2, §3, §4

[13] = system: LS174T; assay: MTS cell proliferation assay, Table 6; settings: LS174T (control); 10 μM, 72 h; relative to DMSO control
From the text: as §1, §2, §3, §4

[14] = system: HeLa cells; assay: MTS cell proliferation assay, Table 6; settings: HeLa (control); 10 μM, 72 h; relative to DMSO control
From the text: as §1, §2, §3, §4

[15] = system: LoVo; assay: MTS cell proliferation assay, Table 6; settings: 10 μM, 72 h, relative to DMSO control
From the text: as §1, §2, §3, §4

[16] = system: DLD-1; assay: MTS cell proliferation assay, Table 6; settings: 10 μM, 72 h, relative to DMSO control
From the text: as §1, §2, §3, §4

[17] = system: WiDr; assay: MTS cell proliferation assay, Table 6; settings: 10 μM, 72 h, relative to DMSO control
From the text: as §1, §2, §3, §4

[18] = system: canonical Wnt signaling; assay: ST-Luc (SuperTOPFlash) Luciferase assay in HEK293 cells, 30% Wnt3a-CM; settings: Homo sapiens, HEK293; 10 μM compound, 30% Wnt3a-CM, 24 h; relative to DMSO control
Procedure, shortened: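 HEK293 cells were transiently co-transfected with SuperTOPFlash firefly luciferase and pRL-TK Renilla reporters, then treated 24 h with 10 μM compound in 30% Wnt3a-conditioned medium. Dual luciferase activity was read, and percent activity was expressed relative to DMSO control.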

IC50 [1]: 0.16 µM | GI50 [2]: 8 µM
SMILES: Cc1ccc(-c2noc(CSc3nnc(-c4ccncc4)n3-c3ccccc3Cl)n2)cc1 [compound 43]
Ratio of means ([3]; APC mutant cell lines versus control cell lines): 0.56 | Mean proliferation (APC mutant cell lines) ([3]; ten APC mutant colorectal lines): 52% | Mean proliferation (control cell lines) [4]: 92% | Cell proliferation (%) [5]: 51% | Cell proliferation (%) [6]: 33% | Cell proliferation (%) [7]: 63% | Cell proliferation (%) [8]: 54% | Cell proliferation (%) [9]: 1% | Cell proliferation (%) [10]: 86% | Cell proliferation (%) [11]: 33% | Cell proliferation (%) [12]: 69% | Cell proliferation (%) [13]: 99% | Cell proliferation (%) [14]: 92% | Cell proliferation (%) [15]: 64% | Cell proliferation (%) [16]: 76% | Cell proliferation (%) [17]: 76% | activity at 10 µM [18]: 7.8%
